According to article PMC12723477, “Evaluating the Antifungal Potential of Autophagy-Related Protein 4 (ATG4) Inhibitors against Human Fungal Pathogens” (Journal of Microbiology and Biotechnology, 2025):

What was measured:
[1] = target: T1, CnAtg4T (truncated Cryptococcus neoformans ATG4) (Cryptococcus neoformans, UniProt J9VN57); experiment: microscale thermophoresis with labelled purified CnAtg4T; also in vitro cleavage assay (IC50 […]) and BRET; format: binding
T1 construct: gene CNAG_02662; CnAtg4T, 6xHis, truncated version excluding the disordered N-terminus, retaining the catalytic triad Cys563/Asp782/His784

[2] = target: T2, AnAtg4 (Aspergillus niger ATG4) (Aspergillus niger, UniProt A2QY50); experiment: in vitro cleavage of AnAtg8 sensor by purified AnAtg4 at […] compound (immunoblot); format: biochemical
T2 construct: 6xHis-AnAtg4
T2 sequence (A2QY50 1-404): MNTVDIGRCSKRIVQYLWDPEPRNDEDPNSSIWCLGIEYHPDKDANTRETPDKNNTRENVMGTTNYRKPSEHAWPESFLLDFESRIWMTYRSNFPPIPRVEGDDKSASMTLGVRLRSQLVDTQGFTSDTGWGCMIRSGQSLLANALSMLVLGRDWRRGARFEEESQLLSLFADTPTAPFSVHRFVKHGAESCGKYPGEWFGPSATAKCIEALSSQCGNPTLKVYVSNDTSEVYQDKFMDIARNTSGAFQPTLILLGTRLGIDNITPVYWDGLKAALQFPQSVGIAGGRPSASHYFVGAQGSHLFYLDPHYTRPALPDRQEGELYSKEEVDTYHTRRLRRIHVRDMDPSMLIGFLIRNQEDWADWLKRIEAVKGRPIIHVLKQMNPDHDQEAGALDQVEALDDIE

[3] = target: T1, CnAtg4T (truncated Cryptococcus neoformans ATG4); experiment: in vitro cleavage of CnAtg8 sensor by purified CnAtg4T (immunoblot) and BRET; format: biochemical

T1 sequence (J9VN57 entry or part of it): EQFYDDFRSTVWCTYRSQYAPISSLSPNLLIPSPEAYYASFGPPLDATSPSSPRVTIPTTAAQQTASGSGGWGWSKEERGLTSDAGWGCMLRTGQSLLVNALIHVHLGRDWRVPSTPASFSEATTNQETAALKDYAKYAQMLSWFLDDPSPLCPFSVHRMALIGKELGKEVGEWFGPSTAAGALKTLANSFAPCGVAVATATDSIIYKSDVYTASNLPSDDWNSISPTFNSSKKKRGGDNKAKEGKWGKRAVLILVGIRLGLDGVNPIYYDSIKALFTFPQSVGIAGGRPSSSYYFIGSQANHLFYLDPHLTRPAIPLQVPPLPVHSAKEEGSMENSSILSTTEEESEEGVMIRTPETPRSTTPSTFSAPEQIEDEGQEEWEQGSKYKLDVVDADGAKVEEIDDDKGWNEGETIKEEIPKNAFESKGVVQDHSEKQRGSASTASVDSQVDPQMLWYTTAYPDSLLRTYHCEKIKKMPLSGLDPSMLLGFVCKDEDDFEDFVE

Row | Compound | Kd [1] [µM] | in vitro cleavage of AnAtg8 sensor by purified AnAtg4 at 10 μM compound (immunob) [2] | IC50 [3] [µM]
1 | O=c1c2ccccc2[se]n1-c1ccccc1 [EB, Ebselen] | 0.7 ± 0.32 | the inhibitors exhibited comparable inhibitory effects on the ATG8 maturation catalyzed by AfAtg4 and AnAtg4 (Fig. 2D) | –
2 | O=C1c2ccccc2[Se](=O)N1c1ccccc1 (stereo not drawn) [EO, ebselen oxide] | – | the inhibitors exhibited comparable inhibitory effects on the ATG8 maturation catalyzed by AfAtg4 and AnAtg4 (Fig. 2D) | 4.8
3 | Cc1ccc(-n2sc3ccccc3c2=O)cc1 [PT, 2-(4-methylphenyl)-1,2-benzisothiazol-3(2H)-one] | – | the inhibitors exhibited comparable inhibitory effects on the ATG8 maturation catalyzed by AfAtg4 and AnAtg4 (Fig. 2D) | 8.44
